Assay results: patent publication US20260250318A1, “COMPOSITIONS AND METHODS FOR CROSSING THE BLOOD BRAIN BARRIER” (VOYAGER THERAPEUTICS, INC., priority 2022, published 2026)

Test system: brain
Assay: Maturation of TTM-001 capsid, NGS enrichment in brain of CD-1 Outbred mice
Assay type: in vivo
Conditions: NGS fold-enrichment of TTM-001 matured AAV capsid variants in the brain of CD-1 Outbred mice; intravenous 1.0×10^12 VG/dose; 14 days in life; RNA; relative to non-matured TTM-001 control
Description: This Example describes maturation of the TTM-001 (SEQ ID NO: 981 (amino acid) and 983 (DNA), comprising SEQ ID NO: 941) and TTM-002 (SEQ ID NO: 982 (amino acid) and 984 (DNA), comprising SEQ ID NO: 2) capsid variants to further enhance their transduction and biodistribution in the central nervous system and evolve the AAV capsid variants to provide further cross-species compatibility. Two approaches were used to mature the TTM-001 and TTM-002 capsid sequences in order to randomize and mutate within and around the peptide insert comprised within loop IV of the capsid variant. […] In the first maturation approach, sets of three contiguous amino acids were randomized across the mutagenesis region in the TTM-001 and TTM-002 sequences, which spanned from position 450 to position 466, numbered according to SEQ ID NO: 981 and 982. In the second maturation approach, mutagenic primers were used to introduce point mutations at a low frequency, scattered across the mutagenesis region in the TTM-001 and TTM-002 sequences ranging from position 449 to position 466, numbered according to SEQ ID NO: 981 and 982. AAV capsid variants arising from each maturation approach for TTM-001 were pooled together and AAV capsid variants arising from each maturation approach for TTM-002 were also pooled together, for subsequent testing and characterization in mice.
The library of pooled matured AAV capsid variants generated from TTM-001 or library of pooled matured AAV capsid variants generated from the TTM-002 matured AAV capsid variant each were intravenously injected into the tail vein of three female CD-1 Outbred mice (Charles River) at a dose of 1.0×10^12 VG/dose. After 14-days in life, the brains of the mice were isolated and RNA was extracted. Following RNA recovery and RT-PCR amplification, a systematic NGS enrichment analysis was performed to calculate the fold enrichment ratio relative to the corresponding TTM-001 or TTM-002 control, and the peptides comprised within the variants were identified. The data for the TTM-001 matured capsid variants is provided in Table 13 and the data for the TTM-002 matured capsid variants is provided in Table 14.

| Sequence | Fold enrichment over TTM-001 |
| --- | --- |
| KAFNGSGSPHSKAPNQQT | 2.088 fold |
| KDLRGSGSPHSKAQNQQT | 2.238 fold |
| KDSLGSGSPHSKAQNQQT | 2.175 fold |
| KEIKGSGSPHSKAQNQQT | 2.140 fold |
| KELVGSGSPHSKAQNQQT | 2.019 fold |
| KEVAGSGSPHSKAQNQQT | 2.250 fold |
| KEVGGSGSPHSKAQNQQT | 2.358 fold |
| KEVMGSGSPHSKAQNQQT | 2.047 fold |
| KGHEGSGSPHSKAQNQQT | 2.151 fold |
| KGINGSGSPHGKAQNQQT | 2.084 fold |
| KGLSGSGSPHSKAQNQQT | 4.056 fold |
| KGLVGSGSPHSKAQNQQT | 2.412 fold |
| KHRSGSGSPHSKAQNQQT | 2.456 fold |
| KPLDGSGSPHSKAQNQQT | 2.488 fold |
| KPLPGSGSPHSKAQNQQT | 2.495 fold |
| KPLRGSGSPHSKAQNQQT | 2.486 fold |
| KPPTGSGSPHSKAQNQQT | 2.270 fold |
| KPRLGSGSPHSKAQNQQT | 2.406 fold |
| KQPLGSGSPHSKAQNQQT | 2.024 fold |
| KRLFGSGSPHSKAQNQQT | 2.330 fold |
| KRSKGSGSPHSKAQNQQT | 2.030 fold |
| KSINGSGSPHSKAHDQQT | 3.592 fold |
| KSMNGSGSPHSRAQNQQT | 5.145 fold |
| KTIMRVGSPHSKAQNQQT | 4.875 fold |
| KTINASGSPHSKAQGQQT | 2.108 fold |
| KTINFLRSPHSKAQNQQT | 3.331 fold |
| KTINGALSPHRKAQNQQT | 2.203 fold |
| KTINGCSSPHRKAQNQQT | 2.291 fold |
| KTINGFLSPHRKAQNQQT | 2.654 fold |
